Laboratory results reported in patent US6352958B1, “Cycloimido-substituted benzofused heterocyclic herbicides” (FMC Corporation, priority 1997, dated 2002).

Legend:
Type in all cases: in vivo
[1] = test system: velvetleaf (Abutilon theophrasti); experiment: Postemergence herbicidal activity, velvetleaf; settings: rate of application 0.3 Kg/Ha, rated after 12-17 days
[2] = test system: blackgrass (Aloepecurus myosuroides); experiment: Postemergence herbicidal activity, blackgrass; settings: rate of application 0.3 Kg/Ha, rated after 12-17 days
Experimental: The benzofused heterocyclic compounds of this invention were tested for pre- and postemergence herbicidal activity using a variety of crops and weeds. The test plants included soybean (Glycine max var. Winchester), field corn (Zea mays var. Pioneer 3732), wheat (Triticum aestivum var. Lew), morningglory (Ipomea lacunosa or Ipomea hederacea), velvetleaf (Abutilon theophrasti), green foxtail (Setaria viridis), Johnsongrass (Sorghum halepense), blackgrass (Aloepecurus myosuroides), common chickweed (Stellaria media), and common cocklebur (Xanthium strumarium L.).
For preemergence testing, two disposable fiber flats (8 cm×15 cm×25 cm) for each rate of application of each candidate herbicide were filled to an approximate depth of 6.5 cm with steam-sterilized sandy loam soil. The soil was leveled and impressed with a template to provide five evenly spaced furrows 13 cm long and 0.5 cm deep in each flat. Seeds of soybean, wheat, corn, green foxtail, and johnsongrass were planted in the furrows of the first flat, and seeds of velvetleaf, morningglory, common chickweed, cocklebur, and blackgrass were planted in the furrows of the second flat. The five-row template was employed to firmly press the seeds into place. A topping soil of equal portions of sand and sandy loam soil was placed uniformly on top of each flat to a depth of approximately 0.5 cm. Flats for postemergence testing were prepared in the same manner except that they were planted 9-14 days prior to the preemergence flats and were placed in a greenhouse and watered, thus allowing the seeds to germinate and the foliage to develop.
In both pre- and postemergence tests, a stock solution of the candidate herbicide was prepared by dissolving 0.27 g of the compound in 20 mL of water/acetone (50/50) containing 0.5% v/v sorbitan monolaurate. For an application rate of 3000 g/ha of herbicide a 10 mL portion of the stock solution was diluted with water/acetone (50/50) to 45 mL.
The preemergence flats were initially subjected to a light water spray. The four flats were placed two by two along a conveyor belt (i.e., the two preemergence followed by the two postemergence flats). The conveyor belt fed under a spray nozzle mounted about ten inches above the post-emergent foliage. The preemergent flats were elevated on the belt so that the soil surface was at the same level below the spray nozzle as the foliage canopy of the postemergent plants. The spray of herbicidal solution was commenced and once stabilized, the flats were passed under the spray at a speed to receive a coverage equivalent of 100 L/ha. At this coverage the application rates are those shown in the above table for the individual herbicidal solutions. The preemergence flats were watered immediately thereafter, placed in the greenhouse and watered regularly at the soil surface. The postemergence flats were immediately placed in the green-house and not watered until 24 hours after treatment with the test solution. Thereafter they were regularly watered at ground level. After 12-17 days the plants were examined and the phytotoxicity data were recorded.
Phytotoxicity data were taken as percent control. Percent control was determined by a method similar to the 0 to 100 rating system disclosed in “Research Methods in Weed Science,” 2nd ed., B. Truelove, Ed.; Southern Weed Science Society; Auburn University, Auburn, Ala., 1977.

[3] = test system: morningglory (Ipomea lacunosa or Ipomea hederacea); experiment: Postemergence herbicidal activity, morningglory; settings: rate of application 0.3 Kg/Ha, rated after 12-17 days
[4] = test system: wheat (Triticum aestivum var. Lew); experiment: Postemergence herbicidal activity, wheat; settings: rate of application 0.3 Kg/Ha, rated after 12-17 days
[5] = test system: field corn (Zea mays var. Pioneer 3732); experiment: Postemergence herbicidal activity, corn; settings: rate of application 0.3 Kg/Ha, rated after 12-17 days
[6] = test system: green foxtail (Setaria viridis); experiment: Postemergence herbicidal activity, green foxtail; settings: rate of application 0.3 Kg/Ha, rated after 12-17 days
[7] = test system: field corn (Zea mays var. Pioneer 3732); experiment: Preemergence herbicidal activity, corn; settings: Rate of Application 0.3 Kg/Ha, examined after 12-17 days
[8] = test system: soybean (Glycine max var. Winchester); experiment: Preemergence herbicidal activity, soybean; settings: Rate of Application 0.3 Kg/Ha, examined after 12-17 days
[9] = test system: morningglory (Ipomea lacunosa or Ipomea hederacea); experiment: Preemergence herbicidal activity, morningglory; settings: Rate of Application 0.3 Kg/Ha, examined after 12-17 days
[10] = test system: wheat (Triticum aestivum var. Lew); experiment: Preemergence herbicidal activity, wheat; settings: Rate of Application 0.3 Kg/Ha, examined after 12-17 days
[11] = test system: blackgrass (Aloepecurus myosuroides); experiment: Preemergence herbicidal activity, blackgrass; settings: Rate of Application 0.3 Kg/Ha, examined after 12-17 days
[12] = test system: green foxtail (Setaria viridis); experiment: Preemergence herbicidal activity, green foxtail; settings: Rate of Application 0.3 Kg/Ha, examined after 12-17 days
[13] = test system: common cocklebur (Xanthium strumarium L.); experiment: Preemergence herbicidal activity, cocklebur; settings: Rate of Application 0.3 Kg/Ha, examined after 12-17 days
[14] = test system: soybean (Glycine max var. Winchester); experiment: Postemergence herbicidal activity, soybean; settings: rate of application 0.3 Kg/Ha, rated after 12-17 days
[15] = test system: velvetleaf (Abutilon theophrasti); experiment: Preemergence herbicidal activity, velvetleaf; settings: Rate of Application 0.3 Kg/Ha, examined after 12-17 days
[16] = test system: Johnsongrass (Sorghum halepense); experiment: Preemergence herbicidal activity, johnsongrass; settings: Rate of Application 0.3 Kg/Ha, examined after 12-17 days
[17] = test system: Johnsongrass (Sorghum halepense); experiment: Postemergence herbicidal activity, johnsongrass; settings: rate of application 0.3 Kg/Ha, rated after 12-17 days
[18] = test system: common chickweed (Stellaria media); experiment: Preemergence herbicidal activity, chickweed; settings: Rate of Application 0.3 Kg/Ha, examined after 12-17 days
[19] = test system: common chickweed (Stellaria media); experiment: Postemergence herbicidal activity, chickweed; settings: rate of application 0.3 Kg/Ha, rated after 12-17 days
[20] = test system: common cocklebur (Xanthium strumarium L.); experiment: Postemergence herbicidal activity, cocklebur; settings: rate of application 0.3 Kg/Ha, rated after 12-17 days

SMILES	Postemergence herbicidal activity (% control) ABUTH [1] [%]	Postemergence herbicidal activity (% control) ALOMY [2] [%]	Postemergence herbicidal activity (% control) IPOSS [3] [%]	Postemergence herbicidal activity (% control) WHT [4] [%]	Postemergence herbicidal activity (% control) CRN [5] [%]	Postemergence herbicidal activity (% control) SETVI [6] [%]	PREEMERGENCE HERBICIDAL ACTIVITY (% CONTROL) CRN [7] [%]	PREEMERGENCE HERBICIDAL ACTIVITY (% CONTROL) SOY [8] [%]	PREEMERGENCE HERBICIDAL ACTIVITY (% CONTROL) IPOSS [9] [%]	PREEMERGENCE HERBICIDAL ACTIVITY (% CONTROL) WHT [10] [%]	PREEMERGENCE HERBICIDAL ACTIVITY (% CONTROL) ALOMY [11] [%]	PREEMERGENCE HERBICIDAL ACTIVITY (% CONTROL) SETVI [12] [%]	PREEMERGENCE HERBICIDAL ACTIVITY (% CONTROL) XANPE [13] [%]	Postemergence herbicidal activity (% control) SOY [14] [%]	PREEMERGENCE HERBICIDAL ACTIVITY (% CONTROL) ABUTH [15] [%]	PREEMERGENCE HERBICIDAL ACTIVITY (% CONTROL) SORHA [16] [%]	Postemergence herbicidal activity (% control) SORHA [17] [%]	PREEMERGENCE HERBICIDAL ACTIVITY (% CONTROL) STEME [18] [%]	Postemergence herbicidal activity (% control) STEME [19] [%]	Postemergence herbicidal activity (% control) XANPE [20] [%]
CC(=O)OCc1nc2c(-n3c(=O)cc(C(F)(F)F)n(C)c3=O)c(F)cc(Br)c2o1 [Compound 101]	100	60	100	50	80	65	100	80	100	70	80	100	80	95	100	100	65	–	–	–
Cn1c(C(F)(F)F)cc(=O)n(-c2c(F)cc(Br)c3oc(COc4ccc(Cl)cc4)nc23)c1=O [Compound 102]	100	60	100	30	75	90	10	20	70	30	90	100	50	80	100	60	60	–	–	–
C#CCOc1nc2c(-n3c(=O)cc(C(F)(F)F)n(C)c3=O)c(F)cc(Br)c2o1 [Compound 106]	100	60	100	30	75	100	70	30	100	40	70	90	60	80	100	55	70	95	–	–
Cn1c(C(F)(F)F)cc(=O)n(-c2c(F)cc(Cl)c3[nH]c(C(F)F)nc23)c1=O [Compound 364]	100	–	100	40	80	100	80	100	100	60	80	100	100	95	100	80	100	100	100	100
CC(=O)OC(C)(C)c1nc2c(-n3c(=O)cc(C(F)(F)F)n(C)c3=O)c(F)cc(Cl)c2[nH]1 [Compound 371]	100	–	100	100	100	100	100	100	100	95	100	100	100	95	100	100	100	100	100	100
